Here are results for five molecules from patent publication US4950775A, “Antihypercholesterolemic compounds and synthesis thereof” (University of California, priority 1985, dated 1990).

The structures appear in SMILES notation.

Assay [1] concerns the target T1, HMG CoA reductase (Rattus norvegicus, UniProt P51639).
T1 construct: measured with rat liver microsomes; from tissue; host or cells: rat liver microsomes
T1 sequence (P51639 1-887): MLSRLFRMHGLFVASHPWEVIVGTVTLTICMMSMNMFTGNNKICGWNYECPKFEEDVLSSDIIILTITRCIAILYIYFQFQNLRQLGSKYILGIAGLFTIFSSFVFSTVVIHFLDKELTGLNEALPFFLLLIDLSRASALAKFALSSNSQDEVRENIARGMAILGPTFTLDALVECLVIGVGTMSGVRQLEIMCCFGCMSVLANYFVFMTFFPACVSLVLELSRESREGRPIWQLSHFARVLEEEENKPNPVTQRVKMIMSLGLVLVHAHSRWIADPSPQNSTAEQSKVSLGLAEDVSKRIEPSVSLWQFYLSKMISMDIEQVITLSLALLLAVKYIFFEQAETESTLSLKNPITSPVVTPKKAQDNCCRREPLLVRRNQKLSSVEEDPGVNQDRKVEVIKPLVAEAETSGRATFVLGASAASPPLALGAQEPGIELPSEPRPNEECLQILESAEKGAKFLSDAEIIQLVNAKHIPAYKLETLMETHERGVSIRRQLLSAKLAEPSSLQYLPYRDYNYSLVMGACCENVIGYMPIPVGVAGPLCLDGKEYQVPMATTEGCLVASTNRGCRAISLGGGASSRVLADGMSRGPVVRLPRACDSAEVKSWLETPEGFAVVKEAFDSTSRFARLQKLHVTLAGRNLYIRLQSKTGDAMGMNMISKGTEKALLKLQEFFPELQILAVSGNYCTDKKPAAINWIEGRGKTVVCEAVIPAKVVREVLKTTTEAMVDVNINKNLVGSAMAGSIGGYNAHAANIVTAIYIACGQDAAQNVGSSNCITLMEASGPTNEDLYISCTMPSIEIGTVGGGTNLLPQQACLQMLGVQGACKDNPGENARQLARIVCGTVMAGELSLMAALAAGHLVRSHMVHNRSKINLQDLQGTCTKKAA
Kind of assay: Inhibition of HMG CoA reductase catalysis in rat liver microsomes (radioactive assay of mevalonate production). Format: biochemical. Conditions: for IC50: pH 6.8, 37° C., 15-min. incubation, four concentrations in triplicate, 14C-HMG CoA substrate. The protocol:
The antihypercholesterolemic activity of each novel compound was measured using the following test. The potency of compactin and each analog as an inhibitor of HMG CoA reductase catalysis was measured with rat liver microsomes. […] Four concentrations of each compound ranging over four appropriate orders of magnitude were tested. The effect on the initial velocity of mevalonate production was determined in a radioactive assay system. […] All components but the ^14 C-HMG CoA were preincubated at 37° C. for 10 min. The inhibitor in 10 μL of DMSO was then added (control samples received DMSO only) and a 15-min. incubation was initiated by the addition of substrate. Catalysis was terminated with 33% aqueous KOH (50 μL). After 30 min., 25 μL of aqueous 0.05% bromophenol, 70000 dpm of (5-^3 H)-mevalono-lactone in 25 μL of H2 O (recovery standard) and 90 μL of 5 N aqueous HCl were added. […] Quantities of collected ^14 C-mevalonate mevalonate were corrected for ^3 -mevalonate recovery before conversion to catalytic rates. Each inhibitor concentration was assayed in triplicate and conversion of (S)-HMG Coenzyme A to product was always less than 20%. Rates in the presence of inhibitors were compared to control rates to generate % inhibition values. When % inhibition was plotted against inhibitor concentration, the resulting curve provided an IC50 value for the inhibitor in question, IC50 being defined as the concentration required to inhibit the enzyme by 50% of control.
A general note: Liver microsomes are vesicles of endoplasmic reticulum, rich in cytochrome P450 enzymes.

Assay [2] has as its system HMG CoA reductase. To be noted: background, U.S. Pat. Nos. 4,049,495, 4,137,332, 3,983,140; cited from earlier work.
In assay [3] the test system is biosynthesis of cholesterol. To be noted: background; cited from earlier work.

One may read the IC50 as the concentration at which inhibition is half-maximal.

As to `CC[C@H](C)C(=O)O[C@H]1CCC=C2C=C[C@H](C)[C@H](CCC(=O)C[C@@H](O)CC(=O)O)[C@H]21` [Formula 53], at HMG CoA reductase [1], the “antihypercholesterolemic activity (HMG CoA reductase inhibition, in words)” value was “possessing antihypercholesterolemic activity” and the 50% inhibitory concentration (IC50) turned out to be 16 nM.

On to `CC[C@H](C)C(=O)O[C@H]1C[C@@H](C)C=C2C=C[C@H](C)[C@H](CC[C@@H]3C[C@@H](O)CC(=O)O3)[C@H]21` [Formula 2], for which the “inhibition of HMG CoA reductase (in words)” value in the assay on HMG CoA reductase [2] is reported as “display utility as inhibitors of the enzyme hydroxymethylglutaryl coenzyme A reductase”. The “inhibition of the biosynthesis of cholesterol (in words)” value in assay [3] is listed as “potent as inhibitors of the biosynthesis of cholesterol”.

For `CC[C@H](C)C(=O)O[C@H]1CCC=C2C=C[C@H](C)[C@H](CC[C@@H]3C[C@@H](O)CC(=O)O3)[C@H]21` [Formula 1], the IC50 on HMG CoA reductase [1] was found to be 9 nM. Moreover, the “inhibition of HMG CoA reductase (in words)” value in the assay on HMG CoA reductase [2] is given as “display utility as inhibitors of the enzyme hydroxymethylglutaryl coenzyme A reductase”. Also, the “inhibition of the biosynthesis of cholesterol (in words)” value in assay [3] is “potent as inhibitors of the biosynthesis of cholesterol”.

Turning to `CC[C@H](C)C(=O)O[C@H]1CCC=C2C=C[C@H](C)[C@H](/C=C/C(=O)C[C@@H](O)CC(=O)O)[C@H]21` [Formula 41*], at HMG CoA reductase [1], the “antihypercholesterolemic activity (HMG CoA reductase inhibition, in words)” value was “possessing antihypercholesterolemic activity” and the IC50 is 230 nM.

Regarding `CC[C@H](C)C(=O)O[C@H]1CCC=C2C=C[C@H](C)[C@H](COC(=O)C[C@@H](O)CC(=O)O)[C@H]21` [Formula 63*, (1S,2S,8S,8aR)-1-[(S)-(3-Hydroxy-4-carboxybutyryl)oxymethyl]-2-methyl-8-[(S)-(2methylbutyryl)oxy]-1,2,6,7,8a-hexahydronaphthalene], on HMG CoA reductase [1], the “antihypercholesterolemic activity (HMG CoA reductase inhibition, in words)” value was “possessing antihypercholesterolemic activity” and the IC50 came to 300 nM.
